Assays:
HCT-116 = experiment: Antiproliferative activity against human HCT-116 cells assessed as reduction in cell viability incubated for 48 hrs by MTS assay; assay type: functional, cell-based; conditions: HCT-116, 48 h
A549 = experiment: cells; conditions: Homo sapiens, A549, 48 h
Description: Antiproliferative activity against human A549 cells assessed as reduction in cell viability incubated for 48 hrs by MTS assay

HL-60 = experiment: Antiproliferative activity against human HL-60 cells assessed as reduction in cell viability incubated for 48 hrs by MTS assay; assay type: functional, cell-based; conditions: HL-60, 48 h
HeLa [1] = experiment: Antiproliferative activity against human HeLa cells assessed as reduction in cell viability incubated for 48 hrs by MTS assay; assay type: functional, cell-based
HeLa [2] = experiment: Induction of apoptosis in human HeLa cells assessed as early apoptotic cells at 10 nM incubated for 24 hrs by annexin V FITC and propidium iodide staining based flow cytometry analysis (reference value: 0.12%); assay type: functional
HeLa [3] = experiment: Induction of apoptosis in human HeLa cells assessed as necrotic cells at 10 nM incubated for 72 hrs by annexin V FITC and propidium iodide staining based flow cytometry analysis (reference value: 2.88 %); assay type: functional
HeLa [4] = experiment: Induction of apoptosis in human HeLa cells assessed as late apoptotic cells at 10 nM incubated for 24 hrs by annexin V FITC and propidium iodide staining based flow cytometry analysis (reference value: 0.05%); assay type: functional
HeLa [5] = experiment: Induction of apoptosis in human HeLa cells assessed as late apoptotic cells at 10 nM incubated for 72 hrs by annexin V FITC and propidium iodide staining based flow cytometry analysis (reference value: 4.70%); assay type: functional
HeLa [6] = experiment: Induction of apoptosis in human HeLa cells assessed as viable cells at 10 nM incubated for 72 hrs by annexin V FITC and propidium iodide staining based flow cytometry analysis (reference value: 90.1%); assay type: functional; conditions: read-out: Activity
HeLa [7] = experiment: Induction of apoptosis in human HeLa cells assessed as necrotic cells at 10 nM incubated for 24 hrs by annexin V FITC and propidium iodide staining based flow cytometry analysis (reference value: 1.14 %); assay type: functional
HeLa [8] = experiment: Induction of apoptosis in human HeLa cells assessed as viable cells at 10 nM incubated for 48 hrs by annexin V FITC and propidium iodide staining based flow cytometry analysis (reference value: 85.5%); assay type: functional; conditions: read-out: Activity
HeLa [9] = experiment: Induction of mitochondrial membrane potential alteration in human HeLa cells assessed as early apoptotic cells at 10 nM measured after 48 hrs by JC1 staining-based flow cytometry analysis (reference value: 9.07 %); assay type: functional
HeLa [10] = experiment: Induction of mitochondrial membrane potential alteration in human HeLa cells assessed as necrotic cells at 10 nM measured after 48 hrs by JC1 staining-based flow cytometry analysis (reference value: 0%); assay type: functional
HeLa [11] = experiment: Induction of apoptosis in human HeLa cells assessed as late apoptotic cells at 10 nM incubated for 48 hrs by annexin V FITC and propidium iodide staining based flow cytometry analysis (reference value: 8.87%); assay type: functional
HeLa [12] = experiment: Induction of mitochondrial membrane potential alteration in human HeLa cells assessed as viable cells at 10 nM measured after 48 hrs by JC1 staining-based flow cytometry analysis (reference value: 90.9%); assay type: functional; conditions: read-out: Activity
HeLa [13] = experiment: Induction of apoptosis in human HeLa cells assessed as early apoptotic cells at 10 nM incubated for 48 hrs by annexin V FITC and propidium iodide staining based flow cytometry analysis (reference value: 6.01%); assay type: functional
HeLa [14] = experiment: Induction of apoptosis in human HeLa cells assessed as necrotic cells at 10 nM incubated for 48 hrs by annexin V FITC and propidium iodide staining based flow cytometry analysis (reference value: 1.85 %); assay type: functional
HeLa [15] = experiment: Induction of apoptosis in human HeLa cells assessed as viable cells at 10 nM incubated for 24 hrs by annexin V FITC and propidium iodide staining based flow cytometry analysis (reference value: 85.7%); assay type: functional; conditions: read-out: Activity
HeLa [16] = experiment: Induction of apoptosis in human HeLa cells assessed as early apoptotic cells at 10 nM incubated for 72 hrs by annexin V FITC and propidium iodide staining based flow cytometry analysis (reference value: 2.36%); assay type: functional
HeLa [17] = experiment: Induction of mitochondrial membrane potential alteration in human HeLa cells assessed as late apoptotic cells at 10 nM measured after 48 hrs by JC1 staining-based flow cytometry analysis (reference value: 0.009%); assay type: functional
[18] = Antiproliferative activity against human A549/PTX cells assessed as reduction in cell viability measured for 48 hrs by MTS assay; assay type: functional, cell-based
[19] = Resistance index, ratio of IC50 for antiproliferative activity against human A549/PTX cells assessed as reduction in cell viability to IC50 for antiproliferative activity against human A549 cells assessed as reduction in cell viability; assay type: functional
[20] = Metabolic stability in rat liver microsomes assessed as intrinsic clearance incubated for 5 mins in presence of NADPH by HPLC analysis; assay type: ADME, Microsome; conditions: read-out: CLH

Compound | IC50 (HCT-116) [nM] | IC50 (A549) [nM] | IC50 (HL-60) [nM] | IC50 (HeLa [1]) [nM] | also measured
COc1cc(C(=O)c2nc(NC3CCOCC3)nc3ccsc23)cc(OC)c1OC | > 10000 | > 10000 | 8050 | > 10000 | 
COc1ccc(C(=O)c2nc(N3CCCC3)nc3ccsc23)cc1OC | > 10000 | > 10000 | > 10000 | > 10000 | 
COc1ccc(/C=C\c2cc(OC)c(OC)c(OC)c2)cc1O [COMBRETASTATIN A4] | 1.1 | 7.5 | 1.3 | 1.4 | Activity (HeLa [2]): 7.41%; Activity (HeLa [3]): 23.3%; Activity (HeLa [4]): 7.5%; Activity (HeLa [5]): 31.8%; viability at 0.01 µM (HeLa [6]): 25.1%; Activity (HeLa [7]): 8.87%; viability at 0.01 µM (HeLa [8]): 16.9%; Activity (HeLa [9]): 18%; Activity (HeLa [10]): 0.011%; Activity (HeLa [11]): 51.9%; viability at 0.01 µM (HeLa [12]): 82%; Activity (HeLa [13]): 20.1%; Activity (HeLa [14]): 11.2%; viability at 0.01 µM (HeLa [15]): 79.4%; Activity (HeLa [16]): 17%; Activity (HeLa [17]): 0%
COc1cccc(C(=O)c2nc(N3CCCC3)nc3ccsc23)c1 | > 10000 | > 10000 | 9570 | > 10000 | 
COc1cc(C(=O)c2nc(N3CCN(C)CC3)nc3ccsc23)cc(OC)c1OC | > 10000 | > 10000 | > 10000 | > 10000 | 
COc1cc(C(=O)c2nc(N3CCOCC3)nc3ccsc23)cc(OC)c1OC | > 10000 | > 10000 | > 10000 | > 10000 | 
COc1cc(C(=O)c2nc(N3CCC(O)C3)nc3ccsc23)cc(OC)c1OC (configuration not stated) | 1400 | 4980 | 3430 | 2200 | 
COc1cc(OC)cc(C(=O)c2nc(N3CCCC3)nc3ccsc23)c1 | 616 | 4340 | 934 | 4380 | 
COc1cc(C(=O)c2nc(N3CCCCC3)nc3ccsc23)cc(OC)c1OC | > 10000 | > 10000 | 1120 | 1200 | 
COc1cc(C(=O)c2nc(N3CCSCC3)nc3ccsc23)cc(OC)c1OC | > 10000 | > 10000 | > 10000 | > 10000 | 
COc1cc(C(=O)c2nc(NC3CCCC3)nc3ccsc23)cc(OC)c1OC | > 10000 | > 10000 | 8400 | > 10000 | 
COc1cc(C(=O)c2nc(N3CC=CC3)nc3ccsc23)cc(OC)c1OC | 26 | 101 | 93 | 22 | 
COc1cc(C(=O)c2nc(N3CCCC3)nc3cc(C)sc23)cc(OC)c1OC | 1740 | 452 | 122 | 194 | 
COc1cc(C(=O)c2nc(Cl)nc3ccsc23)cc(OC)c1OC | 225 | 954 | 889 | 1140 | 
COc1cc(C(=O)c2nc(N(C)C)nc3ccsc23)cc(OC)c1OC | > 10000 | > 10000 | 536 | 1220 | 
CC(=O)O[C@H]1C(=O)[C@@]2(C)[C@H]([C@H](OC(=O)c3ccccc3)[C@]3(O)C[C@H](OC(=O)[C@H](O)[C@@H](NC(=O)c4ccccc4)c4ccccc4)C(C)=C1C3(C)C)[C@]1(OC(C)=O)CO[C@@H]1C[C@@H]2O [PACLITAXEL] |  | 1.1 |  |  | IC50 [18]: 1020 nM; Ratio IC50 [19]: 964
COc1cc(C(=O)c2nc(Nc3cccc(C)c3)nc3ccsc23)cc(OC)c1OC | 151 |  |  | 53 | 

Compound | IC50 (HCT-116) [nM] | IC50 (A549) [nM] | IC50 (HL-60) [nM] | IC50 (HeLa [1]) [nM] | also measured
COc1cc(C(=O)c2nc(N3CCS(=O)(=O)CC3)nc3ccsc23)cc(OC)c1OC | > 10000 | > 10000 | > 10000 | > 10000 | 
CCNc1nc(C(=O)c2cc(OC)c(OC)c(OC)c2)c2sccc2n1 | 309 | 147 | 174 | 37 | 
COc1cc(C(=O)c2nc(N3CCNCC3)nc3ccsc23)cc(OC)c1OC | > 10000 | > 10000 | > 10000 | > 10000 | 
O=C(O)Cc1ccccc1Nc1c(Cl)cccc1Cl [DICLOFENAC] |  |  |  |  | microsomal CLint [20]: 64.2 µL/min/mg
COc1cc(C(=O)c2nc(N3CCC(F)(F)C3)nc3ccsc23)cc(OC)c1OC | 507 | 303 | 377 | 351 | 
CCOc1nc(C(=O)c2cc(OC)c(OC)c(OC)c2)c2sccc2n1 | > 10000 | > 10000 | 7090 | > 10000 | 
CNc1nc(C(=O)c2cc(OC)c(OC)c(OC)c2)c2sccc2n1 | 114 | 45 | 32 | 58 | 
COc1nc(C(=O)c2cc(OC)c(OC)c(OC)c2)c2sccc2n1 | 329 | 965 | 224 | 263 | 
COc1cc(C(=O)c2nc(N(C)C3CCCCC3)nc3ccsc23)cc(OC)c1OC | > 10000 | > 10000 | > 10000 | > 10000 | 
COc1cc(C(=O)c2nc(NC3CCCCC3)nc3ccsc23)cc(OC)c1OC | > 10000 | > 10000 | 2460 | > 10000 | 
COc1ccc(C(=O)c2nc(N3CCCC3)nc3ccsc23)cc1 | > 10000 | > 10000 | > 10000 | > 10000 | 
COc1cc(C(=O)c2nc(SC)nc3ccsc23)cc(OC)c1OC | > 10000 | > 10000 | 285 | > 10000 | 
COc1cc(C(=O)c2nc(N3CCC3)nc3ccsc23)cc(OC)c1OC | 278 | 3140 | 486 | 758 | 
COc1cc(C(=O)c2nc(NC3CCC3)nc3ccsc23)cc(OC)c1OC | 293 | 2400 | 651 | 933 | 
CCN(CC)c1nc(C(=O)c2cc(OC)c(OC)c(OC)c2)c2sccc2n1 | > 10000 | > 10000 | > 10000 | > 10000 | 
COc1cc(C(=O)c2nc(C3CCCC3)nc3ccsc23)cc(OC)c1OC | > 10000 | > 10000 | > 10000 | > 10000 | 

Reference: ChEMBL document CHEMBL5126582, “Discovery of (2-(pyrrolidin-1-yl)thieno[3,2-d]pyrimidin-4-yl)(3,4,5-trimethoxyphenyl)methanone as a novel potent tubulin depolymerizing and vascular disrupting agent” (Eur J Med Chem, 2022)
